Laboratory results reported in patent publication US20220267734A1, “HETEROGENEOUS STEM CELL POPULATION, PREPARATION METHOD THEREFOR AND USE THEREOF” (INSTITUTE OF BASIC MEDICAL SCIENCES, CHINESE ACADEMY OF …, priority 2019, published 2022).

What was measured:
[1] = tested on: human brain pericytes (HBPs); assay: q-PCR gene expression in human brain pericytes under IL-1β with or without DAPT or PDTC; type: cell-based; conditions: for gene expression of TIMP-1: among control, IL-1β and IL-1β+inhibitor groups
Text: We added interleukin 1β (IL-1β) to Transwell in vitro blood-brain barrier model, and cultured human brain microvascular endothelial cells (HBMVECs), human brain pericytes (HBPs) and human brain astrocytes (HBAs) in vitro. We verified HBMVECs, HBPs and HBAs by immunofluorescence staining. Among them, HBMVEC was stained with the antibody against vWF; HBP was stained with the antibodies against α-SMA and NG2, and vWF and GFAP antibodies; and HBA was stained with GFAP antibody (FIG. 8B). […] HBPs were treated with IL-1β for 30 minutes followed by DAPT treatment for 24 hours, and were subjected to q-PCR quantification. It could be seen from FIG. 8E that, compared with the control group, the gene expression of NOTCH3 in the IL-1β group was increased; compared with the IL-1β group, the gene expression of NOTCH3 in the IL-1β+DAPT group was reduced.

[2] = tested on: subpluripotent stem cells; assay: IRISIN-induced differentiation into beige adipocytes (UCP1 marker); type: cell-based; conditions: marker protein UCP1 by real-time fluorescence quantification and western blotting, P<0.05
Text: In recent years, a new hormone IRISIN has been discovered, which is a muscle factor secreted after exercise. It is released from the cleavage of its precursor—fibronectin III domain containing 5 (Fndc5), and is involved in the function of the muscles, the cardiovascular system, the nerves and energy metabolism. In the process of energy regulation, IRISIN is a potential regulator in sugar metabolism. In this study, we used the heterogeneous stem cell population of the present invention as seed cells, and used IRISIN to induce them to differentiate into beige adipocytes (see FIG. 9).
The adipose tissue was washed twice with D-Hanks' solution containing dual antibiotics (penicillin, streptomycin), and centrifuged at 800 rpm for 3 min. The lower layer of the liquid after washing was removed with a pipette and the adipose tissue was transferred to a new centrifugation tube of 50 ml. 0.2% collagenase P was added for digestion. The tube was incubated in a shaker at a constant temperature of 37° C. for 30 min. An appropriate amount of D-Hanks' solution was added to the digested adipose tissue, which was then filtered with a […] cell sieve to remove undigested tissue. The mixture was centrifuged at 1500 rpm for 10 min. The upper layer of grease was removed with a pipette, then the supernatant was discarded and the cell pellet was re-suspended in D-Hanks' solution and washed once. […]

[3] = IL-1β 30 minutes then inhibitor 24 hours, compared with the IL-1β group
[4] = IL-1β group compared with the control group

## N.S=C(S)N1CCCC1 [PDTC]
[1]; [3]
  gene expression of NOTCH3: did not change much
[1]
  gene expression of TIMP-1: did not change significantly

## C[C@H](NC(=O)Cc1cc(F)cc(F)c1)C(=O)N[C@H](C(=O)OC(C)(C)C)c1ccccc1 [DAPT]
[1]; [3]
  gene expression of MMP-9: significantly lower
  gene expression of NF-κB p65: significantly reduced
  gene expression of NOTCH3: reduced
[1]
  gene expression of TIMP-1: did not change much

## IL-1β: interleukin 1β added to Transwell in vitro blood-brain barrier model
[1]; [4]
  gene expression of MMP-9: significantly increased
  gene expression of NF-κB p65: significantly increased
  gene expression of NOTCH3: increased

B1: IRISIN: muscle factor secreted after exercise, released by cleavage of Fndc5 (protein, UniProt Q8NAU1 1-191, looked up)
Irisin: MQAARGGAGRPERPGRPGRGPERERERPPGAGAASPCAAPGLPAGGATIHPGSPSAWPPRARAALRLWLGCVCFALVQADSPSAPVNVTVRHLKANSAVVSWDVLEDEVVIGFAISQQKKDVRMLRFIQEVNTTTRSCALWDLEEDTEYIVHVQAISIQGQSPASEPVLFKTPREAEKMASKNKDEVTMKE
modifications: Irisin
notes: muscle factor secreted after exercise, released by cleavage of Fndc5
[2]
  differentiation into beige adipocytes: induces the differentiation
